Data: patent publication US20220062262A1, “GSNO REDUCTASE INHIBITOR AS AN ADJUNCT THERAPY WITH REMOTE ISCHEMIC CONDITIONING AND THROMBOLYTIC REPERFUSION THERAPIES IN STROKE” (KING ABDULAZIZ UNIVERSITY, priority 2020, published 2022)

Experiments:
ischemia/reperfusion = conditions: 5 mg/kg at 2 hr post ischemia/reperfusion, daily for 3 days or 2 weeks; cited from earlier work
[1] = system: PT-stroke (thrombotic occlusion of distal MCA trunk); experiment: Photothrombotic (PT) model of stroke in aged mice, infarct volume by TTC staining; type: in vivo
Procedure: Aged mice (16 ±1-mo) were subjected to PT-stroke via a novel lateral side surgical approach without craniotomy resulting in the thrombotic occlusion of distal main trunk of MCA. For the purpose, mice were anesthetized with isofluorane, prepared for surgery, and rose Bengal dye (50 mg/kgbwt in 200 uL of 1× sterile PBS) was intravenously (IV) infused. Mice were immediately put on a robotic stereotaxic frame, the head was rotated to face right side up, and the skull was exposed. The distal trunk of MCA was visualized underneath the skull bone (without craniotomy) using a 532 nm laser source (8-mm beam diameter; 4.5 mW) integrated to an ID8-iris (ThorLabs, NJ, USA). The MCA region above the zygomatic arc was exposed with the laser for 20-min from a distance of ˜2-3-mm. Following 20-min laser exposure, thrombotic occlusion of the distal trunk of MCA was confirmed using laser doppler flowmeter showing >60% drop in CBF and finally the lateral side skin wound was closed. All mice under C57/B6 background were bred, housed, used and related experimental procedures were performed in accordance with the approved protocol of Institutional Animal Care and Use Committees (IACUCs) of St. Joseph's Hospital and Medical Center (SJHMC), and Augusta University, Augusta, Ga. Effect of stroke on GSNOR expression/activity was first determined in a clinically relevant partially-humanized TE-stroke, embolic middle cerebral artery occlusion (eMCAo) model in aged (16±1-mo-old) male mice. Next, an effective dose-finding study of GRI therapy (stroke injury size) was performed in aged (16±1-mo-old) male mice in a photothrombotic (PT) model of stroke with the reduction in infarct volume as the primary outcome. The safety and benefits of the best dose of GRI therapy in reducing infarct volume as the primary outcome was also confirmed in reproductively senescent aged (16±1-mo-old) female mice subjected to PT-stroke. To test the benefits of GRI therapy during permanent ischemia, GRI was also tested in adult (14±1-weeks) mice of both sexes subjected to permanent model of middle cerebral artery ligation (pMCAL). All females were ovariectomized at the age of 12-weeks, i.e., 2-weeks prior to stroke surgery. A 2×2 factorial design was adopted [2 Sexes (MALE vs. FEMALE)×2 GRI (NO vs. YES)] such that all 4 groups of both sexes were subjected to pMCAL followed by randomization into two different treatment cohorts: GRI therapy or equal volume of Vehicle treatment. All mice were tested for behavioral outcome on a narrow beam test, relative CBF measurement using laser speckle contrast imaging (LSCI) and infarct volume size. […] Outcome measures such as brain tissue oxygenation (PbtO2), acute inflammatory genes response, neurological deficit, edema as percent (%) swelling and infarct volumes were assessed. […]

Structure (SMILES): Cc1cc(C(N)=O)ccc1-n1c(CCC(=O)O)ccc1-c1ccc(-n2ccnc2)cc1 [GRI therapy, N6022]
- Neurological score, survival rate and motor/cognitive skills (ischemia/reperfusion): improved
- stroke injury (infarct volume) vs vehicle ([1]; aged female mice, 2.5 mg/kg, P<0.05, N=10/gp): effective in reducing the stroke injury significantly
- neuroprotective effect (absolute infarct volume) across doses ([1]; aged male mice, 1, 2.5, 5.0 and 10 mg/kg IV 1 h after PT-stroke, N=8/gp): dose-dependent neuroprotective effect
- GRI dose from which the neuroprotective effect plateaus ([1]; aged male mice, IV 1 h after PT-stroke): > 2.5 mg/kg
- infarct/injury progression vs vehicle (TTC) ([1]; aged male mice, IV 1 h after PT-stroke, P<0.0001): significantly protected against the stroke and prevented the infarct/injury progression
